Data: ChEMBL document CHEMBL1201862, “PubChem BioAssay data set” (2004)
Activity calls are given as the source filed them.

Experiments:
Assay type in all cases: functional
[1] = biological target: T1, Rac GTPase-activating protein 1 (Homo sapiens, UniProt Q9H0H5); experiment: MgcRacGAP GTPase-activating activity inhibitors, confirmation, biochemical, ADP Hunter fluorescence, primary and confirmatory (AID 624330)
T1 sequence (Q9H0H5 whole entry): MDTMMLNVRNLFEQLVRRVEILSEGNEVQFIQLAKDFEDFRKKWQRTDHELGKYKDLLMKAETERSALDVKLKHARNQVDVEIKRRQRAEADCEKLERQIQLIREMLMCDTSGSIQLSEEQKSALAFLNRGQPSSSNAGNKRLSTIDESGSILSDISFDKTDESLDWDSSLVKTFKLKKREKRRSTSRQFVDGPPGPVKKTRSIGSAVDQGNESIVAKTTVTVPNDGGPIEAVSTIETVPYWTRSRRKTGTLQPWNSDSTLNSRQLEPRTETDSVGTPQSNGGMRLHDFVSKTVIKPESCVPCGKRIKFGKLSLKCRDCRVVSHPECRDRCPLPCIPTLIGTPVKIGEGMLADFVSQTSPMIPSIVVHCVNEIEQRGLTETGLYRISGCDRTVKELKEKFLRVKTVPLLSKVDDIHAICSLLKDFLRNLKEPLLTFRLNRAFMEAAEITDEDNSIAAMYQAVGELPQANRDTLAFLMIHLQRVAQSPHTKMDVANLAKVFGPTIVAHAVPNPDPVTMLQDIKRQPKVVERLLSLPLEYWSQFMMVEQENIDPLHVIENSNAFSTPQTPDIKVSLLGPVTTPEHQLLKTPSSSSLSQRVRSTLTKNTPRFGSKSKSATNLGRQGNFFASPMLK

[2] = biological target: Dual specificity mitogen-activated protein kinase kinase 1 (Homo sapiens, UniProt Q02750); experiment: Navigating the Kinome. Panel member name: MAP2K1
[3] = biological target: Serine/threonine-protein kinase pim-1 (Homo sapiens, UniProt P11309)
[4] = biological target: Fibroblast growth factor receptor 1 (Homo sapiens, UniProt P11362)
[5] = biological target: Glycogen synthase kinase-3 alpha (Homo sapiens, UniProt P49840);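 further: GSK3A result taken from a broad kinome-wide kinase panel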
[6] = biological target: Leucine-rich repeat serine/threonine-protein kinase 2 (Homo sapiens, UniProt Q5S007);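 further: value from a broad kinome-wide panel profiling study in which LRRK2 was one of the kinases tested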
[7] = biological target: Cyclin-dependent kinase 9 (Homo sapiens, UniProt P50750);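 further: value from the CDK9 entry of a kinome-spanning kinase panel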
[8] = biological target: T2, Sentrin-specific protease 8 (Homo sapiens, UniProt Q96LD8);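 further: luminescence read-out of SENP8 inhibition, dose-response confirmation following an ultra-high-throughput screen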
T2 sequence (Q96LD8 whole entry): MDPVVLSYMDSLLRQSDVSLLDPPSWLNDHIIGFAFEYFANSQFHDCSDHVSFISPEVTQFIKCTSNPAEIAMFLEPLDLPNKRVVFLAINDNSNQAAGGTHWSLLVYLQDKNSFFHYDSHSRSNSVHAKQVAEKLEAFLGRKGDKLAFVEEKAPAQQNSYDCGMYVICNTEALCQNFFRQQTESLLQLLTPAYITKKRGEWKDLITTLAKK

[9] = biological target: T3, Apoptotic protease-activating factor 1 (Homo sapiens, UniProt O14727)
T3 sequence (O14727 whole entry): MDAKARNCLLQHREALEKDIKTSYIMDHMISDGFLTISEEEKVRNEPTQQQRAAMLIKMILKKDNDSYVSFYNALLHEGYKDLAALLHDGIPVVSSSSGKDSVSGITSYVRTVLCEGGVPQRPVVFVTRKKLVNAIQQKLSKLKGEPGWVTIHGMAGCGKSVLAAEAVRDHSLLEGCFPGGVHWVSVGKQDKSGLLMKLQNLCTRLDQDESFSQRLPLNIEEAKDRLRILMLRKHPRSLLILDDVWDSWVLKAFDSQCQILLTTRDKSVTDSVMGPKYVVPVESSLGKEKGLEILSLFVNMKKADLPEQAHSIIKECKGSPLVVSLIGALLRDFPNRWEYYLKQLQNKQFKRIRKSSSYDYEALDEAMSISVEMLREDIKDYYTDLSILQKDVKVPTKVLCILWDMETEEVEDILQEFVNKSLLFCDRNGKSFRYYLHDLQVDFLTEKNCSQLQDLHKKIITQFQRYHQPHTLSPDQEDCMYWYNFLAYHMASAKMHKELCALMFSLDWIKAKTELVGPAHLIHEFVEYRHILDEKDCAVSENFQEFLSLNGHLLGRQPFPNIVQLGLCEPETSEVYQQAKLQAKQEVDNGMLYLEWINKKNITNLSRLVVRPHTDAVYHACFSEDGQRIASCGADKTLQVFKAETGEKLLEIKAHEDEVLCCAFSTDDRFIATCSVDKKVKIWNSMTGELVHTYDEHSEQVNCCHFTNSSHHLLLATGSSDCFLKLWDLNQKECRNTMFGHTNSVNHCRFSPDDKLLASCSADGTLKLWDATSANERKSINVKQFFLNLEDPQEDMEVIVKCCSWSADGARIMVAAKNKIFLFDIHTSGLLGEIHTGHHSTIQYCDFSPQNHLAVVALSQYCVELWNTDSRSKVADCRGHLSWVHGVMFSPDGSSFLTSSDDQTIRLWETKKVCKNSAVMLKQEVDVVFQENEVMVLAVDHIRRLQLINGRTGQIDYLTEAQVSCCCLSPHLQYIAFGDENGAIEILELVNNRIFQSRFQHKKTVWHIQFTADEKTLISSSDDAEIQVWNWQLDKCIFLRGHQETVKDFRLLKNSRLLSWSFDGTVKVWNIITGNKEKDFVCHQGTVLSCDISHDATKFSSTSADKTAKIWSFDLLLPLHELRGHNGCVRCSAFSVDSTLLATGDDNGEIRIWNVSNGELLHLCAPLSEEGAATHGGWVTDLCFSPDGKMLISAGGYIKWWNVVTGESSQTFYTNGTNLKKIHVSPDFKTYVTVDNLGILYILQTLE

Sequence of Glycogen synthase kinase-3 alpha (P49840 whole entry): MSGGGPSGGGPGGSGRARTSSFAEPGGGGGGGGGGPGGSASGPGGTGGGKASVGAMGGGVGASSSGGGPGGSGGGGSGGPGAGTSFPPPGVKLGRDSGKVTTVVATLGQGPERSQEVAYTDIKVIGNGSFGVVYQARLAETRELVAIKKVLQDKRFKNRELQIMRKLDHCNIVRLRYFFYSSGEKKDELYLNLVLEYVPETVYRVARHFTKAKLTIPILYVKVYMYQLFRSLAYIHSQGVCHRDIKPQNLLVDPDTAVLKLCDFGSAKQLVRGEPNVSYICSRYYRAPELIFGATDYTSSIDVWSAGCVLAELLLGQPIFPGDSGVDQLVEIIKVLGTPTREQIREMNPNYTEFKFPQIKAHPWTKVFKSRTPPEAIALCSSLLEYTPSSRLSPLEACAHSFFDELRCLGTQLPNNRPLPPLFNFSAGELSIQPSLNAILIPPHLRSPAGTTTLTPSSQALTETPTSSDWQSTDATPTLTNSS
Sequence of Leucine-rich repeat serine/threonine-protein kinase 2 (Q5S007 whole entry): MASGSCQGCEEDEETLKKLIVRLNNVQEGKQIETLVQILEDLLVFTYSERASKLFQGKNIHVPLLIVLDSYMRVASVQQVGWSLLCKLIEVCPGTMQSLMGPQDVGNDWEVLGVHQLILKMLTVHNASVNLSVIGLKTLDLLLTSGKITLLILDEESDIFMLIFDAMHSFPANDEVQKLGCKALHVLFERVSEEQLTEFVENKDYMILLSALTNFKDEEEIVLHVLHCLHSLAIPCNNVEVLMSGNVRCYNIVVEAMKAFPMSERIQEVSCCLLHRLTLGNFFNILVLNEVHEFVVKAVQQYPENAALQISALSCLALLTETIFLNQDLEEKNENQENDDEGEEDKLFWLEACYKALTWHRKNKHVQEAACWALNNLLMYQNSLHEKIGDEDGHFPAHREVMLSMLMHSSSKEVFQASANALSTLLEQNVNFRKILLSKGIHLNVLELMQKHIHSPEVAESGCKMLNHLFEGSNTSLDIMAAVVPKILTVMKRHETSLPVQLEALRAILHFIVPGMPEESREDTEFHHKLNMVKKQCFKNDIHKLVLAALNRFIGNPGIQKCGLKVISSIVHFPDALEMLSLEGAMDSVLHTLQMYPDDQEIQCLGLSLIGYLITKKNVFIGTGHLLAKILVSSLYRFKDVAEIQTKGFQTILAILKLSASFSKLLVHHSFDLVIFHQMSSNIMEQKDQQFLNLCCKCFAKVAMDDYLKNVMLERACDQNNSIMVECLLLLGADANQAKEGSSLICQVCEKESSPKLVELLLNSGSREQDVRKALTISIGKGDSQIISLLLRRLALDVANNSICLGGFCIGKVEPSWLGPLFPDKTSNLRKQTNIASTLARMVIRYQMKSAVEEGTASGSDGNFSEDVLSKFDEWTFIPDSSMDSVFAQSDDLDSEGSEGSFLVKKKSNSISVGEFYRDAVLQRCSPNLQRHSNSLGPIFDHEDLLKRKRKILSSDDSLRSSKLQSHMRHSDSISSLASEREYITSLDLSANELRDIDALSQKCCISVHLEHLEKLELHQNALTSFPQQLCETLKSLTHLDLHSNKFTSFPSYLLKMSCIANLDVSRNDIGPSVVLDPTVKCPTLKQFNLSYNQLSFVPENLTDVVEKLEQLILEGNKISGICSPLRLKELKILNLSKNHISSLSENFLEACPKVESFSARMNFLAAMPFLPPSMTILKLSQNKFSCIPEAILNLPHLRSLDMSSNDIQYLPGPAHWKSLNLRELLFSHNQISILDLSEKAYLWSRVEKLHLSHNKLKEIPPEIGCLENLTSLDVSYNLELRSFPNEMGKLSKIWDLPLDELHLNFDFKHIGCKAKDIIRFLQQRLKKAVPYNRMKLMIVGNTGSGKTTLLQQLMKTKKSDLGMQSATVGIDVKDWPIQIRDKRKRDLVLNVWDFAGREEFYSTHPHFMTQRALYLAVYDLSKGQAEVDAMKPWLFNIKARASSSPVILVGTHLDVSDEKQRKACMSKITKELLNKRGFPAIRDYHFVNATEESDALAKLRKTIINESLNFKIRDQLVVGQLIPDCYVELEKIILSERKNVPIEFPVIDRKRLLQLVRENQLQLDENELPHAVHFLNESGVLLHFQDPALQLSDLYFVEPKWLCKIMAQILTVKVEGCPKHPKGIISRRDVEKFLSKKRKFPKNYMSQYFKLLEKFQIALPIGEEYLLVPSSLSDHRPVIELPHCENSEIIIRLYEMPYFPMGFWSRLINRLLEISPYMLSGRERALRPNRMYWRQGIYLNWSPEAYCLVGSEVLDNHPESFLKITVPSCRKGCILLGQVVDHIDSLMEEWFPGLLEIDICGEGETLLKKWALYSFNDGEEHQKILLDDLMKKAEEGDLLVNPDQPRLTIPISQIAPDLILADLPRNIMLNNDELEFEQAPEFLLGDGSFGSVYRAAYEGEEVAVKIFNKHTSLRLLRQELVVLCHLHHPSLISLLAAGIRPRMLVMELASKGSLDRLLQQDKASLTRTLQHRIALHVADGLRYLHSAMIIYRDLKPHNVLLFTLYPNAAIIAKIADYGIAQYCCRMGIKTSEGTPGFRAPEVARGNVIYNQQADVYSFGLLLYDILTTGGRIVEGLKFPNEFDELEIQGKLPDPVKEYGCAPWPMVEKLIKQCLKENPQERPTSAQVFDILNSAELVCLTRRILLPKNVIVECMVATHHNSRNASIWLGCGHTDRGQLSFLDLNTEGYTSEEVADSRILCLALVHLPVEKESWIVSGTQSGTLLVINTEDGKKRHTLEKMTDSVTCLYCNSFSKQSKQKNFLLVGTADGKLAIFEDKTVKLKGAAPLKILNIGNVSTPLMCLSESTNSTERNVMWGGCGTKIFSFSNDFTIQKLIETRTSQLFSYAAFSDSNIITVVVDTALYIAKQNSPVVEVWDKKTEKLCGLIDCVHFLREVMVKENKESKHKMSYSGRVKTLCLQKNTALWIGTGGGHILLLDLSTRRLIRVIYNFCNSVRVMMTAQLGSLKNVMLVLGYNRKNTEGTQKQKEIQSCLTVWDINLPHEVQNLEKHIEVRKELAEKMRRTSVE
Sequence of Cyclin-dependent kinase 9 (P50750 whole entry): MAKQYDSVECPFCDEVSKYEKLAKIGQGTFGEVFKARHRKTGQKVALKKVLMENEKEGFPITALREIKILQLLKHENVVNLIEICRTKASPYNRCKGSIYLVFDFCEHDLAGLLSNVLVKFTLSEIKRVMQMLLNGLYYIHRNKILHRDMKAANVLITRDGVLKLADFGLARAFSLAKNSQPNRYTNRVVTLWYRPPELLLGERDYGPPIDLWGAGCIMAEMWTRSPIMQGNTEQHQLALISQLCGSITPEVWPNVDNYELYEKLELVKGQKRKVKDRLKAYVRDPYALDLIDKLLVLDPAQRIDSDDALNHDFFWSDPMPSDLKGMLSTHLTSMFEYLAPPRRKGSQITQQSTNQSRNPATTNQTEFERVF
Sequence of Fibroblast growth factor receptor 1 (P11362 whole entry): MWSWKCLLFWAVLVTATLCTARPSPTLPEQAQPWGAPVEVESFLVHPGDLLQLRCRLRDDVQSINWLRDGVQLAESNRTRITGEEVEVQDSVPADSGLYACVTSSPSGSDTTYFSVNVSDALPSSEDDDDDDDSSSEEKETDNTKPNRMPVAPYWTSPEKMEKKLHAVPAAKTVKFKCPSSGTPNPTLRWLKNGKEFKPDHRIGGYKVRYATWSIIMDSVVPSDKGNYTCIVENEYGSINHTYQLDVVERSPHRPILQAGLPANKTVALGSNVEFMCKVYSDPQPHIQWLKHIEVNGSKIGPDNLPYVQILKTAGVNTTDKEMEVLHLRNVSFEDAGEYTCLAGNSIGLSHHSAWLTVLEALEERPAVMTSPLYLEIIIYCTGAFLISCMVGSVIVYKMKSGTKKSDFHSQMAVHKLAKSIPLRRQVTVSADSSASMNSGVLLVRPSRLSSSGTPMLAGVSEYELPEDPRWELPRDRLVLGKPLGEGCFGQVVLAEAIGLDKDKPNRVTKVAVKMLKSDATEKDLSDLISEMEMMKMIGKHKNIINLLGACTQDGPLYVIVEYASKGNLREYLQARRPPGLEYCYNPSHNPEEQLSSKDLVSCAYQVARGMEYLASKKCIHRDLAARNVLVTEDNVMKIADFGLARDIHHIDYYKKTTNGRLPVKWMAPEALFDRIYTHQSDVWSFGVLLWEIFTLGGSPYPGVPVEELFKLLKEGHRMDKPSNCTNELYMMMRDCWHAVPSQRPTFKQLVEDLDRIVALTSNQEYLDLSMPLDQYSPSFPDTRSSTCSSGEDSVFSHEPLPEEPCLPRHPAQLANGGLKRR
Sequence of Serine/threonine-protein kinase pim-1 (P11309 whole entry): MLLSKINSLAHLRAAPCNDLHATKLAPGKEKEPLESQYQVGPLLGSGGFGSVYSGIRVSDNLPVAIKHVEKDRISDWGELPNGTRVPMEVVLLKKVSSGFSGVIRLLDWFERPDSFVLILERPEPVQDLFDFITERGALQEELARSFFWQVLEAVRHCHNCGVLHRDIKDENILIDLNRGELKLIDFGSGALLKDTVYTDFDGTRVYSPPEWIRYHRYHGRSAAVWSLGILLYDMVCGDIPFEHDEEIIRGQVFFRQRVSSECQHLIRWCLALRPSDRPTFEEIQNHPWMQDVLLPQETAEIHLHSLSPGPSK
Sequence of Dual specificity mitogen-activated protein kinase kinase 1 (Q02750 whole entry): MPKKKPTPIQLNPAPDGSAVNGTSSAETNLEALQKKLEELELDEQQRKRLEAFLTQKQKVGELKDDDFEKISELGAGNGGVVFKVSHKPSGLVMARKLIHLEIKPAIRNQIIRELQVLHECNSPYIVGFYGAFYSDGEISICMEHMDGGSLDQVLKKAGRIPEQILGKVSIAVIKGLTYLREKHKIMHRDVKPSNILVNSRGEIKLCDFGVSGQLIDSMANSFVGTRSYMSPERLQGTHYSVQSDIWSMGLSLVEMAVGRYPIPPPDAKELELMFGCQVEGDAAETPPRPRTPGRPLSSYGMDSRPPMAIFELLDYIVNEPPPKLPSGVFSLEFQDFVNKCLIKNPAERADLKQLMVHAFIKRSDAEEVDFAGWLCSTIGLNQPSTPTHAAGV

O=C(O)c1ccc2c(c1)[C@@H]1C=CC[C@@H]1[C@H](c1ccccn1)N2
active: IC50 [1] 360 µM

O=C1Nc2cc(-c3ccc(O)cc3)ccc2C1=Cc1ccc[nH]1
active: Ki [2] 1.26 µM | Ki [3] 0.251 µM | Ki [4] 1.26 µM | Ki [5] 0.631 µM | Ki [6] 0.00794 µM | Ki [7] 0.0794 µM

Oc1nc(Nc2ccc(F)cc2)cc2ccccc12
active: IC50 [8] 6.03 µM | IC50 [9] 3.76 µM

NC(COc1cncc(-c2ccc3c(c2)C(=Cc2ccc[nH]2)C(=O)N3)c1)Cc1ccccc1 (centres undefined)
active: Ki [2] 0.316 µM | Ki [3] 0.631 µM | Ki [4] 0.126 µM | Ki [5] 0.00126 µM | Ki [6] 0.00631 µM | Ki [7] 0.158 µM

CCN(CC)CCOc1ccc2c(c1)C(=NNC(=O)c1ccccn1)c1cc(OCCN(CC)CC)ccc1-2
active: IC50 [9] 10.2 µM | IC50 [1] 31.3 µM

O=C1Cc2cc(-c3ccccc3)cnc2N1
active: Ki [2] 79.4 µM | Ki [3] 50.1 µM | Ki [4] 50.1 µM | Ki [5] 15.8 µM | Ki [6] 20 µM | Ki [7] 15.8 µM

COc1cc2cc(NC(C)=O)cc(NCc3ccccc3)c2cc1OC
active: IC50 [9] 20.7 µM | IC50 [1] 49.6 µM

O=C(NC1=C(Nc2ccc(F)cc2)C(=O)c2ccccc2C1=O)c1ccc(Cl)cc1
active: IC50 [8] 10.2 µM | IC50 [9] 16.2 µM

CN(C)c1cc(N/N=C\c2ccccc2)nc(N(C)C)n1
active: IC50 [8] 18.8 µM | IC50 [9] 1.1 µM
